Measurements published in patent publication US9938222B2 (BRISTOL-MYERS SQUIBB COMPANY, priority 2014, dated 2018).
pEC50: −log10 of the molar value.

Each compound was assayed against human GPR120 (Homo sapiens (Human), UniProt Q5NUL3) (assay: GPR120 pERK AlphaScreen SureFire Assay (human GPR120 pERK assay)). Conditions: CHO cells stably transfected with short form of human GPR120.
Assay type: cell-based
Excerpt: GPR120 activity was monitored by measuring phosphorylation of ERK (pERK), since G protein receptors are known to activate the ERK signaling cascade either directly and/or through recruitment of arrestin that serves as a scaffold for downstream signaling events.
GPR120 pERK AlphaScreen SureFire Assay
The human and mouse GPR120-mediated intracellular phosphorylated ERK assays were established using CHOA12 cells stably transfected with the short form of human or mouse GPR120 receptor. Cells were cultured in growth medium consisting of F-12 media (Invitrogen Cat. #11765) with 5% Charcoal/Dextran FBS (Invitrogen Cat. #12676-029), 500 μg/mL GENETICIN® (Life Technologies Cat. #10131-027) and 250 μg/mL Zeocin (Invitrogen Cat. #R250-01). Cells were cryo-preserved at a concentration of 2×10^7 cells/mL, in 90% Charcoal/Dextran FBS and 10% DMSO, and frozen in liquid nitrogen at a low passage number.
For the pERK assay, 2×10^7 cells/mL cryopreserved human and mouse cells were thawed rapidly in a 37° C. water bath and added to a T-225 flask containing 50 mL growth medium. The flasks were placed in a tissue culture incubator overnight (37° C., 5% CO2). The next day, cells were harvested with trypsin (Gibco Cat. #25300-054), resuspended in serum-containing growth medium and counted using a Cellometer and volume adjusted to a concentration of 0.6×10^6 cells/mL. Cells were plated into 384-well clear bottom tissue culture plates (BD Cat. #353962) at 50 μL/well, for a density of 30,000 cells/well using a MULTIDROP® and incubated for 16-18 hours (overnight) at 37° C. with 5% CO2. The next day, cells were serum starved in 30 μL of F-12 media without any serum or antibiotics for 2 hours at 37° C.
Test compounds were 3-fold, 11-point serially diluted in DMSO in a REMP assay plate (Matrix Cat. #4307) by Tecan and 5 μL was transferred into an ECHO source plate (Labcyte Cat. #LC-0200). Cells were then stimulated with 50 nL of compound dilutions using ECHO liquid handler for 7 min at 37° C. Compounds ranged from final assay concentrations of 33.33 μM to 0.56 nM.
The media was then dumped and cells lysed with 20 μL of 1× Lysis buffer from the AlphaScreen SureFire Phospho-ERK 1/2 Kit (Perkin Elmer Cat. #6760617M). The lysis buffer was diluted 5-fold with water before use. The plate was agitated on a shaker for 10 min after which 2 μL was transferred into a 384-well white proxiplate (Perkin Elmer Cat. #6008289). The SureFire assay reagent mix was prepared by mixing 60 parts Reaction Buffer, 10 parts Activation Buffer, 1 part Donor Beads, 1 part Acceptor Beads (Perkin Elmer Cat. #TGRES10K). 3.5 μL/well of this reagent mix was manually added to the proxiplate with a multichannel pipettor. Plates were spun down at 1000 rpm for 2 min, followed by light-protected incubation at room temperature for 2 hours. The plates were read on the Alpha-technology compatible Envision multilabel plate reader using AlphaScreen protocol according to manufacturer's specifications. The agonist effect of compounds was expressed as 100×(average sample-average blank)/(average total-average blank) where sample is the luminescence activity in the presence of test compound, blank is equal to the luminescence activity in the presence of DMSO control and the total is signal induced by 50 μM linolenic acid as reference compound. Activation data for the test compound over a range of concentrations was plotted as percentage activation of the test compound (100%=maximum response). After correcting for background, EC50 values were determined. The EC50 is defined as the concentration of test compound which produces 50% of the maximal response and was quantified using the 4 parameter logistic equation to fit the data.
The human and mouse GPR120-mediated intracellular phosphorylated ERK assays were also established using CHO-K1 cells stably transfected with the short form of human or mouse GPR120 receptor. […]

human GPR120, sequence (Q5NUL3 whole entry): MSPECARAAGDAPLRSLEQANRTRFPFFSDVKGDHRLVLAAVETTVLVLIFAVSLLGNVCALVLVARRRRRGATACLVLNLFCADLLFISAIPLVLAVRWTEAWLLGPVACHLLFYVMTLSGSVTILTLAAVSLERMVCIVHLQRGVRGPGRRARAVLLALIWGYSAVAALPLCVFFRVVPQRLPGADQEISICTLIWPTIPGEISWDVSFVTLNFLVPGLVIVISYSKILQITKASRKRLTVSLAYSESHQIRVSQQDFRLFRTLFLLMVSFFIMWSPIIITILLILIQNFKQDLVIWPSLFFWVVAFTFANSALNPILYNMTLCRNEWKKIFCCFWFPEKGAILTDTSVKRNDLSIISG

Structure (SMILES)	pEC50	EC50 (μM)
CC(C)Oc1ccc(F)c(-c2ccc(OC[C@@H]3C[C@H]3C(=O)O)cc2)c1 (racemic) [Example 1, Trans-2-(((2′-fluoro-5′-isopropoxy-[1,1′-biphenyl]-4-yl)oxy)methyl) cyclopropanecarboxylic acid]	6.43	–
O=C(O)[C@@H]1C[C@@H]1COc1ccc(-c2cc(Oc3ccccc3)ccc2F)cc1 (racemic) [Example 4, Cis-2-(((2′-fluoro-5′-phenoxy-[1,1′-biphenyl]-4-yl)oxy)methyl)cyclopropanecarboxylic acid]	6.33	–
O=C(O)[C@H]1C[C@@H]1COc1ccc(-c2cc(Oc3ccccc3)ccc2F)cc1F (racemic) [Example 9, (Trans)-(+/−)-2-(((2′,3-difluoro-5′-phenoxy-[1,1′-biphenyl]-4-yl)oxy)methyl) cyclopropanecarboxylic acid]	7.10	–
CC(C)Oc1cc(Cl)cc(-c2ccc(OC[C@H]3C[C@@H]3C(=O)O)c(F)c2)c1 (racemic) [Example 12, Trans-2-(((3′-chloro-3-fluoro-5′-isopropoxy-[1,1′-biphenyl]-4-yl)oxy)methyl) cyclopropanecarboxylic acid]	6.51	–
CC(C)Oc1ccc(F)c(-c2ccc(CC[C@H]3C[C@H]3C(=O)O)cc2)c1 (racemic) [Example 15, (Cis)-(+/−)-2-(2-(2′-fluoro-5′-isopropoxy-[1,1′-biphenyl]-4-yl)ethyl) cyclopropanecarboxylic acid]	5.77	–
CC(C)Oc1ccc(Cl)c(-c2ccc(OC[C@@H]3C[C@H]3C(=O)O)c(F)c2)c1 (racemic) [Example 18, Trans-2-(((2′-chloro-3-fluoro-5′-isopropoxy-[1,1′-biphenyl]-4yl)oxy)methyl) cyclopropanecarboxylic acid]	6.68	–
C=C(C)COc1cc(F)cc(-c2ccc(OC[C@@H]3C[C@H]3C(=O)O)cc2)c1 (racemic) [Example 19, Trans-2-(((3′-fluoro-5′-((2-methylallyl)oxy)-[1,1′-biphenyl]-4-yl)oxy)methyl) cyclopropanecarboxylic acid]	–	Not active
CC1(C)Cc2c(cc(F)cc2-c2ccc(OC[C@@H]3C[C@H]3C(=O)O)cc2)O1 (racemic) [Example 20, Trans-2-((4-(6-fluoro-2,2-dimethyl-2,3-dihydrobenzofuran-4-yl)phenoxy)methyl) cyclopropanecarboxylic acid]	6.00	–
CC1(C)Cc2c(F)cc(-c3ccc(OC[C@@H]4C[C@H]4C(=O)O)cc3)cc2O1 (racemic) [Example 21, Trans-2-((4-(4-fluoro-2,2-dimethyl-2,3-dihydrobenzofuran-6-yl)phenoxy)methyl) cyclopropanecarboxylic acid]	–	Not active
O=C(O)[C@@H]1C[C@H]1COc1ccc(-c2cc(F)cc(Oc3ccccc3)c2)cc1 (racemic) [Example 23, Trans-2-(((3′-fluoro-5′-phenoxy-[1,1′-biphenyl]-4-yl)oxy)methyl)cyclopropanecarboxylic acid]	6.18	–
CC(C)Oc1ccc(F)c(-c2ccc(COC[C@@H]3C[C@H]3C(=O)O)cc2)c1 (racemic) [Example 24, Trans-2-(((2′-fluoro-5′-isopropoxy-[1,1′-biphenyl]-4-yl)methoxy)methyl) cyclopropanecarboxylic acid]	6.36	–
O=C(O)[C@@H]1C[C@H]1COCc1ccc(-c2cc(Oc3ccccc3)ccc2F)cc1 (racemic) [Example 25, Trans-2-(((2′-fluoro-5′-phenoxy-[1,1′-biphenyl]-4-yl)methoxy)methyl) cyclopropanecarboxylic acid]	6.01	–
CC(C)Oc1ccc(F)c(-c2ccc(CC[C@@H]3C[C@H]3C(=O)O)cc2)c1 (racemic) [Example 30, Trans-2-(2-(2′-fluoro-5′-isopropoxy-[1,1′-biphenyl]-4-yl)ethyl)cyclopropanecarboxylic acid]	6.49	–
CC(C)Oc1ccc(F)c(-c2ccc(C[C@H]3C[C@@H]3CC(=O)O)cc2)c1 (racemic) [Example 33, Trans-2-(2-((2′-fluoro-5′-isopropoxy-[1,1′-biphenyl]-4-yl)methyl)cyclopropyl)acetic acid]	7.22	–
CC(C)Oc1ccc(F)c(-c2ccc(C[C@H]3C[C@H]3CC(=O)O)cc2)c1 (racemic) [Example 34, Cis-2-(2-((2′-fluoro-5′-isopropoxy-[1,1′-biphenyl]-4-yl)methyl)cyclopropyl)acetic acid]	6.37	–
CCSc1cccc(-c2ccc(CC[C@@H]3C[C@H]3C(=O)O)cc2)c1 (racemic) [Example 38, Trans-2-(2-(3′-(ethylthio)-[1,1′-biphenyl]-4-yl)ethyl)cyclopropanecarboxylic acid]	5.49	–
CC(C)Oc1ccc(F)c(-c2ccc(CC[C@]3(F)C[C@H]3C(=O)O)cc2)c1 (racemic) [Example 39, Cis-2-fluoro-2-(2-(2′-fluoro-5′-isopropoxy-[1,1′-biphenyl]-4-yl)ethyl) cyclopropanecarboxylic acid]	5.69	–
CC(C)Oc1ccc(F)c(-c2ccc(CC[C@]3(F)C[C@@H]3C(=O)O)cc2)c1 (racemic) [Example 40, Trans-2-fluoro-2-(2-(2′-fluoro-5′-isopropoxy-[1,1′-biphenyl]-4-yl)ethyl) cyclopropanecarboxylic acid]	5.29	–
CC(C)Oc1ccc(F)c(-c2ccc(CC[C@H]3C[C@]3(C)C(=O)O)cc2)c1 (racemic) [Example 41, Trans-2-(2-(2′-fluoro-5′-isopropoxy-[1,1′-biphenyl]-4-yl)ethyl)-1-methylcyclopropanecarboxylic acid]	6.07	–
O=C(O)[C@@H]1C[C@H]1COc1ccc(-c2cc(Oc3cccc(F)c3)ccc2F)cc1 (racemic) [Example 42, Trans-2-(((2′-fluoro-5′-(3-fluorophenoxy)-[1,1′-biphenyl]-4-yl)oxy)methyl)cyclopropanecarboxylic acid]	6.74	–
O=C(O)[C@@H]1C[C@H]1COc1ccc(-c2cc(Oc3ccc(F)cc3)ccc2F)cc1 (racemic) [Example 44, Trans-2-(((2′-fluoro-5′-(4-fluorophenoxy)-[1,1′-biphenyl]-4-yl)oxy)methyl)cyclopropanecarboxylic acid]	6.57	–
CC(C)Oc1ccc(F)c(-c2ccc(OC[C@@H]3C[C@H]3C(=O)O)c(Cl)c2)c1 (racemic) [Example 45, Trans-2-(((3-chloro-2′-fluoro-5′-isopropoxy-[1,1′-biphenyl]-4-yl)oxy)methyl)cyclopropanecarboxylic acid]	6.66	–
Cc1cc(-c2cc(OC(C)C)ccc2F)ccc1OC[C@@H]1C[C@H]1C(=O)O (racemic) [Example 46, Trans-2-(((2′-fluoro-5′-isopropoxy-3-methyl-[1,1′-biphenyl]-4-yl)oxy)methyl)cyclopropanecarboxylic acid]	6.51	–
CC(C)Oc1cc(-c2ccc(OC[C@@H]3C[C@H]3C(=O)O)cc2)cc(C(F)(F)F)c1 (racemic) [Example 47, Trans-2-(((3′-isopropoxy-5′-(trifluoromethyl)-[1,1′-biphenyl]-4-yl)oxy)methyl)cyclopropanecarboxylic acid]	5.69	–
O=C(O)[C@@H]1C[C@H]1COc1ccc(-c2cc(Cl)cc(OC(F)(F)F)c2)cc1 (racemic) [Example 48, Trans-2-(((3′-chloro-5′-(trifluoromethoxy)-[1,1′-biphenyl]-4-yl)oxy)methyl)cyclopropanecarboxylic acid]	6.12	–
CC(C)Oc1cc(-c2ccc(OC[C@@H]3C[C@H]3C(=O)O)cc2)c(F)c(C(F)(F)F)c1 (racemic) [Example 49, Trans-2-(((2′-fluoro-5′-isopropoxy-3′-(trifluoromethyl)-[1,1′-biphenyl]-4-yl)oxy)methyl)cyclopropanecarboxylic acid]	5.78	–
